Measurements published in PMC3856129, “Cytotoxicity and Genotoxicity Evaluation of Organochalcogens in Human Leucocytes: A Comparative Study between Ebselen, Diphenyl Diselenide, and Diphenyl Ditelluride” (BioMed Research International, 2013).

Columns and labels:
human leucocytes [1] = assay: Comet Assay (DNA damage index); type: cell-based; settings: 3 hours at 37°C, compared to the control group
Protocol: (§1) 2 mL of dextran 5% (dissolved in Phosphate Buffer Saline 1%) was added to 8 mL of blood. The tube was gently mixed and left to stand at room temperature for 45 min. Afterwards, the supernatant was centrifuged (480 ×g, 10 min) and plasma was discarded. The pellet was washed with erythrocyte lysis solution (NH4Cl 150 mM; NaHCO3 10 mM; EDTA 1 mM) and centrifuged (480 ×g, 2 min). The supernatant was discarded and the pellet was washed twice with 1 mL erythrocyte lysis solution. After the second centrifugation, the pellet was suspended in 2 mL Hank's buffer solution (KCl 5.4 mM; Na2HPO4 0.3 mM; KH2PO4 0.4 mM; NaHCO3 4.2 mM; MgCl2 0.5 mM; NaCl 122.6 mM; D-glicose 10 mM, Tris-HCl 10 mM; CaCl2 1.3 mM; pH 7.4). The concentration of leucocytes was adjusted to 2000 cells/μL.
(§2) Leucocytes were exposed to ebselen, (PhSe)2, and (PhTe)2 at 5, 10, and 50 μM or an equal volume of DMSO (final concentration of 0.5%) during 3 hours at 37°C. Positive control group was treated with hydrogen peroxide (H2O2) 2 mM and sodium azide 1 mM.
Comet Assay was performed according to Collins with some modifications. After three hours of incubation, 15 μL of the sample was mixed with 90 μL of low-melting point agarose 0.75% and placed in a slide precoated with agarose 1%. A coverslip was added and the samples were left to solidify at 4°C. The coverslips were removed and the slides were placed on a lysis solution (NaCl 2.5 M; EDTA 100 mM; Tris-HCl 8 mM; Triton X-100 1%; pH 10–10.5) during 24 hours at 4°C. Afterwards, the slides were incubated in an electrophoresis solution (NaOH 300 mM; EDTA 1 mM; pH 13.5) for 20 minutes at 4°C and the electrophoresis was performed (25 V; 300 mA; 7 W) for 20 minutes. All the steps were performed in the dark until this moment. After electrophoresis, the slides were washed in a neutralizing solution (Tris-HCl 400 mM; pH 7.5) three times, washed with distilled water, and left to dry. The slides were rehydrated and fixed (Trichloroacetic acid 15%; ZnSO4 5%; glycerol 5%), washed three with distilled water, and left to dry. Afterwards, the rehydrated slides were stained (Na2CO3 5%; NH4NO3 0.1%; AgNO3 0.1%; H4[W12SiO40] 0.25%; formaldehyde 0.15%). The slides were immersed in acetic acid 1%, washed, and left to dry.
One hundred cells randomly selected were analyzed in each sample according to tail size and intensity in five classes. The damage score for each cell can range between 0 (no damage) and 4 (maximum damage), according to Figure 1. Damage index (DI) was defined as follows: DI = 1n1 + 2n2 + 3n3 + 4n4, where n1 represents the number of cells with damage level 1, n2 represents the number of cells with damage level 2, n3 represents the number of cells with damage level 3, and n4 represents the number of cells with damage level 4. At least two different individuals analyzed the slides under blind conditions.

human leucocytes [2] = assay: Trypan's Blue exclusion test (cell viability); type: cell-based; settings: for decrease in leucocyte viability: 50 μM; for effect on cell viability at lower concentrations: 5 and 10 μM
Protocol: as §1, §2
Trypan's Blue exclusion test was performed according to Mischel and Shiingi. After 3 hours of incubation, 50 μL of Trypan's Blue 0.4% was mixed with 50 μL of leucocytes and left to stand at room temperature for 5 minutes. Cell viability was determined microscopically (400x magnification) and expressed as number of viable cells divided by the total number of cells multiplied by 100.

[3] = 3 hours at 37°C, compared to the control groups

| SMILES | damage index (DI) of DNA (human leucocytes [1]; 50 μM) | damage index (DI) of DNA (human leucocytes [1]; 5 and 10 μM) | decrease in leucocyte viability (human leucocytes [2]; [3]) | effect on cell viability at lower concentrations (human leucocytes [2]; 3 hours at 37°C) | decrease in leucocyte viability (human leucocytes [2]; human, 3 h, pH 7.4) |
| --- | --- | --- | --- | --- | --- |
| c1ccc([Te][Te]c2ccccc2)cc1 [(PhTe)2, Diphenyl Ditelluride] | significant increase in DI | increased DI | about 25% | did not cause significant decrease in cell viability |  |
| c1ccc([Se][Se]c2ccccc2)cc1 [(PhSe)2, Diphenyl Diselenide] | significant increase in DI | did not cause DNA damage | about 20% | did not cause significant decrease in cell viability |  |
| O=c1c2ccccc2[se]n1-c1ccccc1 [ebselen, Ebselen] | significant increase in DI | did not cause DNA damage |  |  | about 60% |
